# Data taken from US20230295234A1, “ANTIMICROBIAL PEPTIDOMIMETICS” (SPEXIS AG, priority 2020, published 2023).
# Bridge positions count the residues as written; N and C are the ends. Square brackets hold non-standard residues; d marks the D form. Peptide text beside a SMILES is read from it. Pro(4R-NH2) = N[C@H]1CN[C@H](C(=O)O)C1; Hyp = O=C(O)[C@@H]1C[C@@H](O)CN1; Gly(N(CH2)3NH2) = NCCCNCC(=O)O; Pen = CC(C)(S)[C@H](N)C(=O)O; dDab = NCC[C@@H](N)C(=O)O; Dab = NCC[C@H](N)C(=O)O; Nlys = NCCCCNCC(=O)O
# Key:
# [1] = system: human red blood cells (hRBC); assay: Hemolysis of human red blood cells; assay type: cell-based; settings: red cells of human, 1 h
# Method: Lyophilized peptides were weighed on a Microbalance (Mettler MT5) and dissolved in sterile water to a final concentration of 1 mg/mL. Stock solutions were kept at +4° C., light protected. The peptides were tested for their hemolytic activity against human red blood cells (hRBC). Fresh hRBC were washed three times with phosphate buffered saline (PBS) and centrifuged for 5 min at 3000×g. Compounds (200 μg/mL) were incubated with 20% hRBC (v/v) for 1 h at 37° C. and shaking at 300 rpm. […] The samples were centrifuged, the supernatants were 8-fold diluted in PBS buffer and the optical densities (OD) were measured at 540 nm. […] Percent hemolysis was calculated as follows: (OD540peptide/OD540H2O)×100%.
# [2] = system: Klebsiella pneumoniae SSI3010; settings: SSI3010
# Method: (§1) Lyophilized peptides were weighed on a Microbalance (Mettler MT5) and dissolved in sterile water to a final concentration of 1 mg/mL. Stock solutions were kept at +4° C., light protected.
# (§2) Colonies of the microorganisms were diluted in saline (0.85%, NaCl) and adjusted using a McFarland reader (bioMérieux SA, Marcy-l'Etoile, France) to 0.5 McFarland standard. Subsequently, the bacterial suspension was diluted in Mueller-Hinton II (MHII, cation adjusted) broth to give approximately 5×10^5 colony forming units (CFU/mL).
# (§3) 10^6 colony forming units (CFU)/mL. Aliquots (90 μl) of inoculate were added to 10 μl of water+P-80 (Polysorbate 80, 0.002% final concentration) containing the peptide in serial two-fold dilutions at 10 fold final concentration. The following microorganisms were used to determine antibiotic selectivity of the peptides: Escherichia coli ATCC 25922, Escherichia coli MCR-1 Af 45 and Klebsiella pneumoniae SSI3010.
# [3] = system: Escherichia coli ATCC 25922; settings: ATCC 25922
# Method: as §1, §2, §3
# [4] = system: Escherichia coli MCR-1 Af 45; settings: MCR-1 Af 45
# Method: as §1, §2, §3
Compound,Klebsiella pneumoniae SSI3010 MIC [2] [µg/mL],Escherichia coli ATCC 25922 MIC [3] [µg/mL],Escherichia coli MCR-1 Af 45 MIC [4] [µg/mL],Hemolysis at 0.2 g/L [1] [%]
"CCCC[C@H](NC(=O)[C@H](CCCNC(=N)N)NC(=O)[C@H](CCN)NC(=O)[C@@H]1CSSC[C@H](NC(=O)[C@H](Cc2ccc(O)cc2)NC(=O)[C@@H](NC(=O)[C@@H](NC(=O)[C@@H]2CCCN2C(=O)[C@@H](NC(=O)[C@H](N)CCCCN)C(C)C)[C@@H](C)CC)[C@@H](C)CC)C(=O)N[C@@H](CC(N)=O)C(=O)N[C@@H](CCCNC(=N)N)C(=O)N[C@@H](CCCNC(=N)N)C(=O)N[C@@H]([C@@H](C)O)C(=O)N[C@H](CCN)C(=O)N[C@@H](CCCCN)C(=O)N1)C(=O)O [Example 1] (HELM PEPTIDE1{[dK].V.P.I.I.Y.C.N.R.R.T.[NCC[C@@H](N[*:1])C(=O)[*:2]].K.C.[Dab].R.[Nle]}$PEPTIDE1,PEPTIDE1,7:R3-14:R3$$$V2.0)",0.125,0.0625,0.0625,0
"CCCC[C@H](NC(=O)[C@H](CCCNC(=N)N)NC(=O)[C@H](CCN)NC(=O)[C@@H]1CSSC(C)(C)[C@H](NC(=O)[C@H](Cc2ccc(O)cc2)NC(=O)[C@@H](NC(=O)[C@@H](NC(=O)[C@@H]2CCCN2C(=O)[C@@H](NC(=O)[C@@H]2CCCN2)C(C)C)[C@@H](C)CC)[C@@H](C)CC)C(=O)N[C@@H](CC(N)=O)C(=O)N[C@@H](CCCNC(=N)N)C(=O)N[C@@H](CCN)C(=O)N[C@@H]([C@@H](C)O)C(=O)N[C@H](CCN)C(=O)N[C@@H](CCCCN)C(=O)N1)C(=O)O [Example 2, Pro-Val-Pro-Ile-Ile-Tyr-Pen-Asn-Arg-Dab-Thr-^DDab-Lys-Cys-Dab-Arg-Nle] (HELM PEPTIDE1{P.V.P.I.I.Y.[Pen].N.R.[Dab].T.[NCC[C@@H](N[*:1])C(=O)[*:2]].K.C.[Dab].R.[Nle]}$PEPTIDE1,PEPTIDE1,7:R3-14:R3$$$V2.0)",0.25,0.0625,0.0625,0
"CCCC[C@H](NC(=O)[C@H](CCCNC(=N)N)NC(=O)[C@H](CCC(N)=O)NC(=O)[C@@H]1CSSC(C)(C)[C@H](NC(=O)[C@H](Cc2ccc(O)cc2)NC(=O)[C@@H](NC(=O)[C@@H](NC(=O)[C@@H]2C[C@@H](N)CN2C(=O)[C@@H](NC(=O)[C@@H]2CCCN2)C(C)C)[C@@H](C)CC)[C@@H](C)CC)C(=O)N[C@@H](CC(N)=O)C(=O)N[C@@H](CCCNC(=N)N)C(=O)N[C@@H](CCN)C(=O)N[C@@H]([C@@H](C)O)C(=O)N[C@H](CCN)C(=O)N[C@@H](CCCCN)C(=O)N1)C(=O)O [Example 3, Pro-Val-Pro((4R)NH2)-Ile-Ile-Tyr-Pen-Asn-Arg-Dab-Thr-^DDab-Lys-Cys-Gln-Arg-Nle] (HELM PEPTIDE1{P.V.[N[C@@H]1C[C@@H](C(=O)[*:2])N([*:1])C1].I.I.Y.[Pen].N.R.[Dab].T.[NCC[C@@H](N[*:1])C(=O)[*:2]].K.C.Q.R.[Nle]}$PEPTIDE1,PEPTIDE1,7:R3-14:R3$$$V2.0)",0.25,0.125,0.25,0
"CC[C@H](C)[C@H](NC(=O)[C@@H]1C[C@@H](O)CN1C(=O)[C@@H](NC(=O)[C@@H]1C[C@@H](N)CN1C(=O)CNCCCN)C(C)C)C(=O)N[C@H](C(=O)N[C@@H](Cc1ccc(O)cc1)C(=O)N[C@@H]1C(=O)N[C@@H](CC(N)=O)C(=O)N[C@@H](CCCNC(=N)N)C(=O)N[C@@H](CCN)C(=O)N[C@@H]([C@@H](C)O)C(=O)N[C@H](CCN)C(=O)N[C@@H](CCCCN)C(=O)N[C@H](C(=O)N[C@@H](CCN)C(=O)N[C@@H](CCCNC(=N)N)C(=O)N[C@@H](Cc2ccc(O)cc2)C(=O)O)CSSC1(C)C)[C@@H](C)O [Example 51, Norn-Pro((4R)NH2)-Val-Hyp-Ile-Thr-Tyr-Pen-Asn-Arg-Dab-Thr-^DDab-Lys-Cys-Dab-Arg-Tyr] (H-[Gly(N(CH2)3NH2)][Pro(4R-NH2)]V[Hyp]ITY[Pen]NR[Dab]T[dDab]KC[Dab]RY-OH; disulfide 8-15)",0.25,0.0625,,0

# Continued, in another order:
Klebsiella pneumoniae SSI3010 MIC [2] [µg/mL],Escherichia coli ATCC 25922 MIC [3] [µg/mL],Escherichia coli MCR-1 Af 45 MIC [4] [µg/mL],Compound,Hemolysis at 0.2 g/L [1] [%]
0.125,0.0625,,"CC[C@H](C)[C@H](NC(=O)[C@@H]1C[C@@H](O)CN1C(=O)[C@@H](NC(=O)[C@@H]1C[C@@H](N)CN1C(=O)CNCCCCN)C(C)C)C(=O)N[C@H](C(=O)N[C@@H](Cc1ccc(O)cc1)C(=O)N[C@@H]1C(=O)N[C@@H](CC(N)=O)C(=O)N[C@@H](CCCNC(=N)N)C(=O)N[C@@H](CCN)C(=O)N[C@@H]([C@@H](C)O)C(=O)N[C@H](CCN)C(=O)N[C@@H](CCCCN)C(=O)N[C@H](C(=O)N[C@@H](CCN)C(=O)N[C@@H](CCCNC(=N)N)C(=O)N[C@@H](Cc2ccc(O)cc2)C(=O)O)CSSC1(C)C)[C@@H](C)O [Example 52, Nlys-Pro((4R)NH2)-Val-Hyp-Ile-Thr-Tyr-Pen-Asn-Arg-Dab-Thr-^DDab-Lys-Cys-Dab-Arg-Tyr] (H-[Nlys][Pro(4R-NH2)]V[Hyp]ITY[Pen]NR[Dab]T[dDab]KC[Dab]RY-OH; disulfide 8-15)",0
0.125,0.125,,"CCCC[C@H](NC(=O)[C@H](CCCNC(=N)N)NC(=O)[C@H](CCN)NC(=O)[C@@H]1CSSC[C@H](NC(=O)[C@H](Cc2ccc(O)cc2)NC(=O)[C@@H](NC(=O)[C@@H](NC(=O)[C@@H]2C[C@@H](O)CN2C(=O)[C@@H](NC(=O)[C@@H]2C[C@@H](O)CN2C(=O)[C@H](CCCCN)NC(=O)[C@@H](N)CCCCN)C(C)C)[C@@H](C)CC)[C@@H](C)CC)C(=O)N[C@@H](CC(N)=O)C(=O)N[C@@H](CCCNC(=N)N)C(=O)N[C@@H](CCN)C(=O)N[C@@H]([C@@H](C)O)C(=O)N[C@H](CCN)C(=O)N[C@@H](CCCCN)C(=O)N1)C(=O)O [Example 78, Lys-Lys-Hyp-Val-Hyp-Ile-Ile-Tyr-Cys-Asn-Arg-Dab-Thr-^DDab-Lys-Cys-Dab-Arg-Nle] (HELM PEPTIDE1{K.K.[Hyp].V.[Hyp].I.I.Y.C.N.R.[Dab].T.[NCC[C@@H](N[*:1])C(=O)[*:2]].K.C.[Dab].R.[Nle]}$PEPTIDE1,PEPTIDE1,9:R3-16:R3$$$V2.0)",0
0.0625,0.0625,,"CC[C@H](C)[C@H](NC(=O)[C@@H]1C[C@@H](O)CN1C(=O)[C@@H](NC(=O)[C@@H]1C[C@@H](N)CN1C(=O)[C@H](CCCCN)NC(=O)[C@@H](N)CCCCN)C(C)C)C(=O)N[C@H](C(=O)N[C@@H](Cc1ccc(O)cc1)C(=O)N[C@@H]1C(=O)N[C@@H](CC(N)=O)C(=O)N[C@@H](CCCNC(=N)N)C(=O)N[C@@H](CCN)C(=O)N[C@@H]([C@@H](C)O)C(=O)N[C@H](CCN)C(=O)N[C@@H](CCCCN)C(=O)N[C@H](C(=O)N[C@@H](CCN)C(=O)N[C@@H](CCCNC(=N)N)C(=O)N[C@@H](Cc2ccc(O)cc2)C(=O)O)CSSC1(C)C)[C@@H](C)O [Example 127, Lys-Lys-Pro((4R)NH2)-Val-Hyp-Ile-Thr-Tyr-Pen-Asn-Arg-Dab-Thr-^DDab-Lys-Cys-Dab-Arg-Tyr] (HELM PEPTIDE1{K.K.[N[C@@H]1C[C@@H](C(=O)[*:2])N([*:1])C1].V.[Hyp].I.T.Y.[Pen].N.R.[Dab].T.[NCC[C@@H](N[*:1])C(=O)[*:2]].K.C.[Dab].R.Y}$PEPTIDE1,PEPTIDE1,9:R3-16:R3$$$V2.0; N-terminus and C-terminus assumed)",0
